Patent US11999748B2, “Exatecan derivatives, linker-payloads, and conjugates and thereof” (priority 2021, dated 2024)

Tested on: high HER2 tumor cell line SK-BR-3
Experiment: Effect of small molecules on cell proliferation (CellTiter-Glo)
Type: cell-based
Details: SK-BR-3, 120 h; (IC50 of control sample Dxd / IC50 of test sample) x 100
Method: Study Purpose: In this experiment, cell viability was detected using CellTiter-Glo to evaluate the effects of the small molecule compounds on the proliferation of a high HER2 tumor cell line SK-BR-3, and to analyze the effects of the small molecule compounds on the proliferation of tumor cells.
(4) After the drug was added, the cells were incubated in the incubator for 120 h.
(3) ATP detection: Discard the culture medium and 100 μl/well DMEM was added, 50 μl/hole CTG was added into 96-well plate, protected from light using aluminum foil and oscillated using a vortex oscillator at room temperature of 200 rpm for 10 min.
GraphPad software was used to process the data. […] If necessary, the relative biological activity of sample A, i.e., ratio activity was calculated. Dxd was used as the control sample for the ratio activity calculation. Cell proliferation inhibition rate (%)=(luminescence value of drug-treated group−luminescence value of puro group)/(luminescence value of blank control group−luminescence value of puro group)×100 Ratio activity of sample (%)=(IC50 value of the control sample/IC50 value of the test sample)×100 Ratio activity of control sample (%)=(IC50 value of the control sample/IC50 value of the previous control sample)×100

Compound | Ratio activity (%)
CC[C@@]1(O)C(=O)OCc2c1cc1n(c2=O)Cc2c-1nc1cc(F)c(OC)c3c1c2C(NC(=O)CO)CC3 (mixture of isomers) [C664] | 0.269
CC[C@@]1(O)C(=O)OCc2c1cc1n(c2=O)Cc2c-1nc1cc(F)c(Cl)c3c1c2[C@@H](NC(=O)[C@@H](C)O)CC3 [C677] | 1.008
CC[C@@]1(O)C(=O)OCc2c1cc1n(c2=O)Cc2c-1nc1cc(F)c(C)c3c1c2[C@@H](NC(=O)[C@@](C)(O)C(F)(F)F)CC3 [C688] | 0.744
CC[C@@]1(O)C(=O)OCc2c1cc1n(c2=O)Cc2c-1nc1cc(F)c(Br)c3c1c2[C@@H](NC(=O)C[C@H](C)O)CC3 [C601] | 1.826
CC[C@@]1(O)C(=O)OCc2c1cc1n(c2=O)Cc2c-1nc1cc(F)c(Br)c3c1c2[C@@H](NC(=O)C[C@@H](C)O)CC3 [C603] | 1.439
CC[C@@]1(O)C(=O)OCc2c1cc1n(c2=O)Cc2c-1nc1cc(F)c(C)c3c1c2[C@@H](NC(=O)CO)CC3 [Dxd, reference compound] | 1
CC[C@@]1(O)C(=O)OCc2c1cc1n(c2=O)Cc2c-1nc1cc(F)c(Cl)c3c1c2[C@H](N)CC3 [C731] | 0.82
CC[C@@]1(O)C(=O)OCc2c1cc1n(c2=O)Cc2c-1nc1cc(F)c(Cl)c3c1c2[C@H](NC(=O)[C@](C)(O)C(F)(F)F)CC3 [C703] | 0.846
CC[C@@]1(O)C(=O)OCc2c1cc1n(c2=O)Cc2c-1nc1cc(F)c(Br)c3c1c2[C@@H](NC(=O)[C@@H](C)O)CC3 [C597] | 0.684
CC[C@@]1(O)C(=O)OCc2c1cc1n(c2=O)Cc2c-1nc1cc(F)c(C)c3c1c2[C@@H](NC(=O)C[C@@H](C)O)CC3 [C588] | 1.019
CC[C@@]1(O)C(=O)OCc2c1cc1n(c2=O)Cc2c-1nc1cc(F)c(Cl)c3c1c2[C@@H](NC(=O)COCCO)CC3 [C586] | 0.259
CC[C@@]1(O)C(=O)OCc2c1cc1n(c2=O)Cc2c-1nc1cc(F)c(C)c3c1c2[C@@H](NC(=O)C1(OCCO)CC1)CC3 [C565] | 1.381
CC[C@@]1(O)C(=O)OCc2c1cc1n(c2=O)Cc2c-1nc1cc(F)c(Cl)c3c1c2[C@H](NC(=O)C1(O)CC1)CC3 [C594] | 0.568
CC[C@@]1(O)C(=O)OCc2c1cc1n(c2=O)Cc2c-1nc1cc(F)c(C)c3c1c2[C@@H](NC(=O)[C@H](OCCO)C1CC1)CC3 [C563] | 1.284
CC[C@@]1(O)C(=O)OCc2c1cc1n(c2=O)Cc2c-1nc1cc(F)c(OC)c3c1c2C(NC(=O)[C@@H](C)O)CC3 (some centres unmarked) [C668] | 0.231
CC[C@@]1(O)C(=O)OCc2c1cc1n(c2=O)Cc2c-1nc1cc(F)c(Cl)c3c1c2[C@@H](NC(=O)[C@H](O)C(F)(F)F)CC3 [C626] | 0.54
CC[C@@]1(O)C(=O)OCc2c1cc1n(c2=O)Cc2c-1nc1cc(F)c(Br)c3c1c2C(NC(=O)[C@H](C)O)CC3 (mixture of isomers) [C595] | 0.832
CC[C@@]1(O)C(=O)OCc2c1cc1n(c2=O)Cc2c-1nc1cc(F)c(Cl)c3c1c2[C@@H](N)CC3 [C730] | 1.35
CC[C@@]1(O)C(=O)OCc2c1cc1n(c2=O)Cc2c-1nc1cc(F)c(OC)c3c1c2C(NC(=O)C(O)C(F)(F)F)CC3 (some centres unmarked) [C671] | 0.365
CC[C@@]1(O)C(=O)OCc2c1cc1n(c2=O)Cc2c-1nc1cc(F)c(Cl)c3c1c2[C@H](NC(=O)CCCO)CC3 [C680] | 0.546
CC[C@@]1(O)C(=O)OCc2c1cc1n(c2=O)Cc2c-1nc1cc(F)c(Cl)c3c1c2C(NC(=O)[C@H](O)C1CC1)CC3 (mixture of isomers) [C624] | 0.916
CC[C@@]1(O)C(=O)OCc2c1cc1n(c2=O)Cc2c-1nc1cc(F)c(Cl)c3c1c2[C@@H](NC(=O)CO)CC3 [C518, N-((1S,9S)-4-chloro-9-ethyl-5-fluoro-9-hydroxy-10,13-dioxo-2,3,9,10,13,15-hexahydro-1H,12H-benzo[de]pyrano[3′,4′:6,7]indolizino[1,2-b]quinolin-1-yl)-2-hydroxyacetamide] | 2.272

Compound | Ratio activity (%)
CC[C@@]1(O)C(=O)OCc2c1cc1n(c2=O)Cc2c-1nc1cc(F)c(Br)c3c1c2[C@H](NC(=O)C[C@@H](C)O)CC3 [C602] | 0.29
CC[C@@]1(O)C(=O)OCc2c1cc1n(c2=O)Cc2c-1nc1cc(F)c(Br)c3c1c2[C@H](NC(=O)C[C@H](C)O)CC3 [C600] | 0.62
CC[C@@]1(O)C(=O)OCc2c1cc1n(c2=O)Cc2c-1nc1cc(F)c(C)c3c1c2[C@@H](NC(=O)[C@@H](OCCO)C1CC1)CC3 [C562] | 1.029
CC[C@@]1(O)C(=O)OCc2c1cc1n(c2=O)Cc2c-1nc1cc(F)c(Br)c3c1c2[C@H](NC(=O)[C@@H](C)O)CC3 [C596] | 0.911
CC[C@@]1(O)C(=O)OCc2c1cc1n(c2=O)Cc2c-1nc1cc(F)c(Br)c3c1c2[C@@H](NC(=O)CO)CC3 [C637] | 1.585
CC[C@@]1(O)C(=O)OCc2c1cc1n(c2=O)Cc2c-1nc1cc(F)c(Br)c3c1c2[C@H](NC(=O)C(O)C(F)(F)F)CC3 (mixture of isomers) [C619] | 0.434
CC[C@@]1(O)C(=O)OCc2c1cc1n(c2=O)Cc2c-1nc1cc(F)c(C)c3c1c2[C@@H](NC(=O)C[C@H](C)O)CC3 [C589, (S)—N-((1S,9S)-9-ethyl-5-fluoro-9-hydroxy-4-methyl-10,13-dioxo-2,3,9,10,13,15-hexahydro-1H,12H-benzo[de]pyrano[3′,4′:6,7]indolizino[1,2-b]quinolin-1-yl)-3-hydroxybutanamide] | 1.325
CC[C@@]1(O)C(=O)OCc2c1cc1n(c2=O)Cc2c-1nc1cc(F)c(Br)c3c1c2[C@H](NC(=O)CO)CC3 [C636] | 0.682
CC[C@@]1(O)C(=O)OCc2c1cc1n(c2=O)Cc2c-1nc1cc(F)c(OC)c3c1c2C(NC(=O)C1(O)CC1)CC3 (mixture of isomers) [C667] | 0.658
CC[C@@]1(O)C(=O)OCc2c1cc1n(c2=O)Cc2c-1nc1cc(F)c(Cl)c3c1c2[C@H](NC(=O)COCCO)CC3 [C587] | 0.285
CC[C@@]1(O)C(=O)OCc2c1cc1n(c2=O)Cc2c-1nc1cc(F)c(Cl)c3c1c2[C@H](NC(=O)[C@@H](C)O)CC3 [C678] | 0.277
CC[C@@]1(O)C(=O)OCc2c1cc1n(c2=O)Cc2c-1nc1cc(F)c(Cl)c3c1c2[C@@H](NC(=O)[C@@H](O)C1CC1)CC3 [C622] | 0.669
CC[C@@]1(O)C(=O)OCc2c1cc1n(c2=O)Cc2c-1nc1cc(F)c(C)c3c1c2[C@@H](NC(=O)COCCO)CC3 [C504] | 0.703
CC[C@@]1(O)C(=O)OCc2c1cc1n(c2=O)Cc2c-1nc1cc(F)c(C)c3c1c2[C@@H](NC(=O)[C@](C)(O)C(F)(F)F)CC3 [C687] | 1.835
CC[C@@]1(O)C(=O)OCc2c1cc1n(c2=O)Cc2c-1nc1cc(F)c(Br)c3c1c2[C@@H](NC(=O)C(O)C(F)(F)F)CC3 (mixture of isomers) [C620] | 0.384
CC[C@@]1(O)C(=O)OCc2c1cc1n(c2=O)Cc2c-1nc1cc(F)c(Cl)c3c1c2[C@@H](NC(=O)[C@](C)(O)C(F)(F)F)CC3 [C704] | 2.271
CC[C@@]1(O)C(=O)OCc2c1cc1n(c2=O)Cc2c-1nc1cc(F)c(OC)c3c1c2C(NC(=O)C[C@H](C)O)CC3 (mixture of isomers) [C665] | 0.495
CC[C@@]1(O)C(=O)OCc2c1cc1n(c2=O)Cc2c-1nc1cc(F)c(Cl)c3c1c2[C@H](NC(=O)CO)CC3 [C519, N-((1R,9S)-4-chloro-9-ethyl-5-fluoro-9-hydroxy-10,13-dioxo-2,3,9,10,13,15-hexahydro-1H,12H-benzo[de]pyrano[3,4′:6,7]indolizino[1,2-b]quinolin-1-yl)-2-hydroxyacetamide] | 1.059
CC[C@@]1(O)C(=O)OCc2c1cc1n(c2=O)Cc2c-1nc1cc(F)c(Cl)c3c1c2[C@@H](NC(=O)[C@@H](O)C(F)(F)F)CC3 [C627] | 5.054
CC[C@@]1(O)C(=O)OCc2c1cc1n(c2=O)Cc2c-1nc1cc(F)c(Cl)c3c1c2C(NC(=O)C[C@H](C)O)CC3 (mixture of isomers) [C625] | 0.783
CC[C@@]1(O)C(=O)OCc2c1cc1n(c2=O)Cc2c-1nc1cc(F)c(Cl)c3c1c2[C@@H](NC(=O)CCCO)CC3 [C679] | 0.49
CC[C@@]1(O)C(=O)OCc2c1cc1n(c2=O)Cc2c-1nc1cc(F)c(Cl)c3c1c2[C@@H](NC(=O)C1(O)CC1)CC3 [C593] | 2.514
